In publication PMC12586598, “A novel long-acting C5a-blocking cyclic peptide prevents sepsis-induced organ dysfunction via effective blockade of the inflammatory cascade” (Signal Transduction and Targeted Therapy, 2025):
Where a SMILES comes first, the peptide text is derived from it.

Legend:
human C5a = molecular target: T1, human C5a (Homo sapiens, UniProt P01031); assay: SPR binding affinity assay, immobilized human C5a
T1 construct: human C5a (ACROBiosystems, Beijing, China); purchased ACROBiosystems
T1 sequence (P01031 678-751 limits assumed): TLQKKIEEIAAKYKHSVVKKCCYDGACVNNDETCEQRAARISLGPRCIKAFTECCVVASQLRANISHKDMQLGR
Procedure: (§1) Surface plasmon resonance (SPR) analysis was conducted using Biacore 2000 system (GE Healthcare, Germany) at 37°C in running buffer (20 mM Tris-HCl, pH 7.4, 150 mM NaCl, 5 mM KCl, 1 mM MgCl₂, 1 mM CaCl₂). The CM5 sensor chips (GE Healthcare) were activated with NHS/EDC, followed by immobilization of mouse C5a (ACROBiosystems, Beijing, China), human C5a (ACROBiosystems, Beijing, China), mouse C5 (ACROBiosystems, Beijing, China) or mouse C5a-desArg (MCE, Shanghai, China). The peptide-protein interactions were characterized using a concentration-gradient approach (low to high) with a continuous flow rate of 30 μL/min (150 s injection duration). Between analyte concentrations, the sensor surface was regenerated with 10 mM glycine-HCl (pH 2.0; 5 min treatment). Binding and dissociation constants were obtained by globally fitting the data to a 1:1 Langmuir binding model using a Biacore Insight evaluation software (Cytiva, USA).

mouse C5 = molecular target: T2, mouse C5 (Mus musculus, UniProt P06684); assay: SPR binding affinity assay, immobilized mouse C5
T2 construct: purchased ACROBiosystems
Procedure: as §1

C5a-C5aR1 = molecular target: T3, C5a-C5aR1 (Homo sapiens, UniProt P01031); assay: Validation of Cp1-specific blockade of C5a-C5aR1 by flow cytometry on PMNs; type: cell-based; conditions: resting and TNF-α activated PMNs, Cy5-C5a
T3 construct: 10 ng of Cy5-labeled human C5a (MCE, Shanghai, China); purchased MCE; host or cells: PMNs from Oribiotech Co., Ltd. (endogenous receptor)
T3 sequence (P01031 678-751): T1 sequence (P01031 678-751 limits assumed)
Procedure: To validate the Cp1-specific blockade of C5a-C5aR1. PMNs isolated by flow cytometric sorting from Oribiotech Co., Ltd. (Shanghai, China) were preincubated with C5aR1-antibody (5 μg), C5aR2-antibody (5 μg), Cp1 (10 μg), Cp1 (10 μg)+C5aR1-antibody (5 μg) or Cp1 (10 μg)+C5aR2-antibody (5 μg) at room temperature for 0.5 h, followed by incubation with 10 ng of Cy5-labeled human C5a (MCE, Shanghai, China) at 4 °C for 0.5 h in the dark. The samples were subsequently centrifuged, washed with PBS and detected via flow cytometry. PMNs were stimulated with 10 ng/mL TNF-α for 12 hours to perform competitive binding assays under activated conditions.

PMNs = assay: Neutrophil phagocytosis (BioParticles and live bacteria), flow cytometry; type: cell-based, human; conditions: 6 h hC5a stimulation; E. coli and S. aureus BioParticles and live bacteria
Procedure: To assess the phagocytic function of neutrophils, PMNs were stimulated with hC5a or hC5a/Cp1 complexes for 6 h, followed by incubation with 20 μL of Red E. coli BioParticles™ or Green S. aureus BioParticles™ (Invitrogen, USA) at 37 °C for 0.5 h in the dark.[44] After being washed with precooled PBS and centrifuged (40 × g, 5 min), the samples were subjected to flow cytometric quantification for phagocytosis analysis. For the live bacterial phagocytosis assay, 2 × 10^5 PMNs were prestimulated with 100 ng of hC5a or hC5a/Cp1 complexes for 6 h. The PMNs were incubated with DMAO-labeled E. coli (ATCC 25922) or S. aureus (ATCC 29213) at an MOI (multiplicity of infection) of 10 for 0.5 h at 37 °C in the dark, followed by pretreatment with precooled gentamicin (50 μg/mL). The intracellular fluorescence intensity of PMNs was quantified via flow cytometry.

CLP-induced septic mice = assay: Endothelial injury biomarkers and capillary leakage in CLP mice; type: in vivo, mouse; conditions: 24 h post-CLP surgery
Procedure: To evaluate microvascular leakage in the murine abdominal cavity, the mice received 100 μg of Cp1 via intravenous administration one hour after CLP surgery. Subsequently, 200 μL of 0.25% (w/v) Evans blue dye was injected intravenously for permeability quantification. Twenty-four hours later, the plasma and peritoneal lavage fluid (PLF) of the mice were collected and subjected to spectrophotometric measurement at 620 nm. To exclude hemoglobin interference, the serum absorbance values were corrected via the following formula: corrected A620 = A620 − (A405 × 0.014).[40] Vascular permeability was quantified by the A620 ratio of PLF to serum. To assess capillary leakage in pulmonary tissues, human plasma albumin (HSA) (1 mg/75 μL) was injected intravenously after CLP surgery and Cp1 administration. Twenty-four hours later, the HSA in the bronchoalveolar lavage fluid (BALF) and plasma samples was quantified via a HAS ELISA Kit (Cusabio, Wuhan), and the lung permeability index was calculated as the ratio of the HAS in the BALF to that in the plasma.
The cecal ligation and puncture (CLP) model was established in male C57BL/6 mice (9-10 weeks old). Briefly, a midline laparotomy was performed to exteriorize the cecum under general anesthesia. The cecum was ligated at the distal three-quarters using sutures. Subsequently, a single through-and-through puncture was made in the ligated segment using a 22-gaμge needle, followed by small volume of fecal content was gentle extrusion. The cecum was then repositioned within abdominal cavity, and the laparotomy incision was closed in layers. All animals were administered 1 mL of sterile saline for postoperative fluid resuscitation. Sham-operated controls underwent identical surgical procedures without cecal ligation or puncture. In this work, mice received administration via intravenous injection 1 hour after CLP surgery. The animal mortality was determined by the presence of confirmed death. […] Blood samples were collected 24 hours after CLP-modeling for hematological analysis (Mindray BC-60R Vet) and biochemical analysis (Mindray BS-240 Vet, China), endothelial injury analysis (Njjcbio, Nanjing) and coagulation analysis (Legene, Beijing). Subsequently, mice were sacrificed to collect the main organs for morphological and pathological analysis.

T2 sequence (P06684 19-1680): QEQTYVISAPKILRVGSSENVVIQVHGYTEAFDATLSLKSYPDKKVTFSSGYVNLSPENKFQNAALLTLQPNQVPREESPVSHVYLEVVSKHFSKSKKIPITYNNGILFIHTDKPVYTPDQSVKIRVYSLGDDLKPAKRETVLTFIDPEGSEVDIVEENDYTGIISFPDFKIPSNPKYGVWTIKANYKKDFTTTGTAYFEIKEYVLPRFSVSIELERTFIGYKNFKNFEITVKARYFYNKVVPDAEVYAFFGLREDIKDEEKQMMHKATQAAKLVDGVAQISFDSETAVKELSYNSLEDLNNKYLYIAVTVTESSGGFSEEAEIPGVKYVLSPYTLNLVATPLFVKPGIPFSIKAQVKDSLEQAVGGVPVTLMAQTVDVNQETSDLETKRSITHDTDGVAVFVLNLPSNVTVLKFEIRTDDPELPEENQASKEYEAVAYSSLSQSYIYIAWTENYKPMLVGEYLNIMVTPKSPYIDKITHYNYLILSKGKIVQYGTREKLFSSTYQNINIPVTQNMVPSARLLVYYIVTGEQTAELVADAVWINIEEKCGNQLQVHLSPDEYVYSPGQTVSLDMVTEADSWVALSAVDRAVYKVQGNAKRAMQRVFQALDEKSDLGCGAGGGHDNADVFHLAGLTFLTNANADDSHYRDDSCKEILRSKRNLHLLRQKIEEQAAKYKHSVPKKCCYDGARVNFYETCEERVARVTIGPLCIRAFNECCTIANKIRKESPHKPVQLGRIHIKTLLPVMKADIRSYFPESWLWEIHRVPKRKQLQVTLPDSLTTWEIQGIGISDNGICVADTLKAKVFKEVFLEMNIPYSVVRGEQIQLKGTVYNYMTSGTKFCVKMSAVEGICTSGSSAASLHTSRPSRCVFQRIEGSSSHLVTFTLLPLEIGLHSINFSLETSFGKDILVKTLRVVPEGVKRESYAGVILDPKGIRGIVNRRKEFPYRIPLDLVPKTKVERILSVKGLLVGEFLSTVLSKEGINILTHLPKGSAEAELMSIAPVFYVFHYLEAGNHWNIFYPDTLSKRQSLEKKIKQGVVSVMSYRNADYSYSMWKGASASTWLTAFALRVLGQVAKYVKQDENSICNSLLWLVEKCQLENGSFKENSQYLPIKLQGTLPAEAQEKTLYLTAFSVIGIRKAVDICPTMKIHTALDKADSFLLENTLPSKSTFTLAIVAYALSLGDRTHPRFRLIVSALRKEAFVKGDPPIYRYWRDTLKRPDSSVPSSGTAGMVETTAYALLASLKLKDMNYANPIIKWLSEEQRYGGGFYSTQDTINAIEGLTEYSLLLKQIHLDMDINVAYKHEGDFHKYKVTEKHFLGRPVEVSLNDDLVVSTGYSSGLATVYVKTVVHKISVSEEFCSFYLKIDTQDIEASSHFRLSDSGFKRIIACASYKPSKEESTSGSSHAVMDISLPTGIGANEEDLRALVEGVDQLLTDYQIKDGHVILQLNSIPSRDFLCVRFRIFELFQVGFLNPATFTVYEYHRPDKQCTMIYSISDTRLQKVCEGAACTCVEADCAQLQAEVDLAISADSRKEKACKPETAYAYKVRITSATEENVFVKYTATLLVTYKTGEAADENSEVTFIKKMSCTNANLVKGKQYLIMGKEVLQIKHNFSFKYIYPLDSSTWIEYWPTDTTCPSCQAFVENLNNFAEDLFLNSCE

Question: For `CSCC[C@@H]1NC(=O)[C@@H]2CCCN2C(=O)[C@H](CCSC)NC(=O)[C@H](CO)NC(=O)[C@H](Cc2c[nH]cn2)NC(=O)CNC(=O)[C@H](CO)NC(=O)[C@H](Cc2ccccc2)NC(=O)[C@H](CCCNC(=N)N)NC(=O)[C@H](CCC(=O)O)NC(=O)[C@H](Cc2ccccc2)NC(=O)[C@H](C(C)C)NC1=O` [Cp1] (cyclo(HSMPMVFERFSG)), which kon (human C5a; pH 7.4, read-out: Ka vs hC5a (SPR)) is on record?
Answer: 53300 M⁻¹ s⁻¹

Question: What about the koff (human C5a; read-out: Kd (dissociation rate) vs hC5a (SPR)) of the same compound?
Answer: 0.395 s⁻¹

Question: And the kon (mouse C5; pH 7.4, read-out: Ka vs mC5 (SPR))?
Answer: 105000 M⁻¹ s⁻¹

Question: And the koff (mouse C5; read-out: Kd (dissociation rate) vs mC5 (SPR))?
Answer: 0.0745 s⁻¹

Question: And the “specificity of blocking the C5a-C5aR1 axis” value (C5a-C5aR1)?
Answer: selective blockade of the C5a‒C5aR1 interaction

Question: What about the “effect on C5a-induced phagocytic impairment in PMNs” value (PMNs) of the same compound?
Answer: effectively mitigated C5a-induced phagocytic impairment

Question: What about the “decrease of circulating E-selectin vs CLP group” value (CLP-induced septic mice; 100 μg/20 g) of the same compound?
Answer: 71%

Question: And the “decrease of circulating PAI-1 vs CLP group” value (CLP-induced septic mice; 100 μg/20 g)?
Answer: 93%

Question: What about the “decrease of circulating VCAM-1 vs CLP group” value (CLP-induced septic mice; 100 μg/20 g) of the same compound?
Answer: 100%

Question: And the “decrease of Evans blue leakage (PLF/Serum)” value (CLP-induced septic mice; vs untreated CLP group)?
Answer: 54%

Question: And the “decrease of HAS leakage (BALF/Serum)” value (CLP-induced septic mice; vs untreated CLP group)?
Answer: 83%

Question: And the “reduction in lung wet-to-dry weight ratio (W/D ratio)” value (CLP-induced septic mice; vs untreated CLP group)?
Answer: 85%
